Laboratory results published in patent US9085584B2, “Substituted pyrido[3,2-E][1,2,4]-triazolo[4,3-A]pyrazines for the treatment of central nervous system disorders” (Boehringer Ingelheim International GmbH, priority 2012, dated 2015).

What was measured:
[1] = molecular target: PDE10 (Homo sapiens (Human), UniProt Q9Y233); assay: PDE10 assay with fluorescent substrate (IMAP, fluorescence polarization); type: biochemical
Description: (§1) Another, non radioactive, in-vitro assay was performed as follows • c) Phosphodiesterase (PDE) 2A and 10 Assay with Fluorescent Substrate Assay Principle:
(§2) The PDE reaction cleaves cAMP to AMP. The IMAP system (Molecular Device) using fluorescence polarization (FP) as detection principle was used to measure enzyme activity. A fluorescent labeled cAMP was used as substrate for the reaction, generating a labeled AMP. The fluorescent AMP binds specifically to the large M(III)-based nano-particles which reduces the rotational speed of the substrate and thus increases its polarization.
(§3) The inhibition of PDE 2A or 10 enzyme activity was assessed using IMAP-Phosphodiesterase-cAMP fluorescence labeled substrate (Molecular Devices, Order No. R7506), IMAP TR-FRET screening express (Molecular Devices, Order No. R8160, the TR-FRET component will not be used) and PDE 2A or PDE10 protein expressed upon baculovirus infection in SF9 cells.
(§4) All reactions were performed in 384 well plates, Perkin Elmer black optiplates and IMAP reaction buffer with 0.1% Tween20 (kit component)
(§5) Compounds were serial diluted in DMSO. With an intermediate dilution step with reaction buffer DMSO concentration was reduced to achieve 1% DMSO in the assay reaction. Setup of the assay started with 10 μl enzyme (˜10 ng/well, depending on prep. batch), 5 μl compound, reaction was started by addition of 5 μl labeled cAMP (30 nM, final concentration), immediately mixed for 15 seconds on a Eppendorf mixmate (2000 rpm) followed by an incubation at room temperature for 90 minutes in the dark. Reaction is stopped by adding of 60 μl binding buffer for FP/cAMP (kit component).
(§6) Each assay plate contained wells with vehicle controls (1% DMSO) for the measurement of non-inhibited reaction (=100% control) and wells without enzyme as 0% controls.

[2] = molecular target: PDE 2A (Homo sapiens (Human), UniProt O00408); assay: PDE 2A assay with fluorescent substrate (IMAP, fluorescence polarization); type: biochemical; details: read-out: PDE2 IC50
Description: as §1, §2, §3, §4, §5, §6

[3] = molecular target: hERG channel (Homo sapiens (Human), UniProt Q12809); assay: hERG-channel assay (whole-cell patch clamp, transfected HEK293 cells); type: cell-based; details: HEK293 cells stably transfected with hERG cDNA, 35° C.
Text: hERG (Human Ether-à-go-go-Related Gene)-Channel Assay
hERG channel inhibition of compounds of the present invention has been investigated as follows:
HEK (human embryonic kidney) 293 cells were stably transfected with hERG cDNA.
Cells were superfused with a bath solution containing (mM): NaCl (137), KCl (4.0), MgCl2 (1.0), CaCl2 (1.8), Glucose (10), HEPES (10), pH 7.4 with NaOH. Patch pipettes were made from borosilicate glass tubing using a horizontal puller and filled with pipette solution containing (mM): K-aspartate (130), MgCl2 (5.0), EGTA (5.0), K2ATP (4.0), HEPES (10.0), pH 7.2 with KOH. Resistance of the microelectrodes was in the range between 2 and 5 MΩ.
Stimulation and recording:
Membrane currents were recorded using an EPC-10 patch clamp amplifier and PatchMaster software. hERG-mediated membrane currents were recorded at 35° C., using the whole-cell configuration of the patch-clamp technique. […] During each inter-pulse interval 4 pulses scaled down by a factor of 0.2 were recorded for a P/n leak subtraction procedure. […]
The different concentrations of the test compound were applied sequentially on each of the different cells investigated. A steady state level of baseline current was measured for at least 6 sweeps prior to the application of the first test compound concentration. […]
Peak current amplitudes were measured 3 ms after the ramp to +40 mV. […]

[4] = Metabolic stability in pooled liver microsomes; type: in vitro ADME, human; details: 1 μM test compound, 37° C.; for Half-life - t½: human liver microsomes
Description: The metabolic stability of the compounds according to the invention has been investigated as follows:
The metabolic degradation of the test compound was assayed at 37° C. with pooled liver microsomes from various species. The final incubation volume of 100 μl per time point contains TRIS buffer pH 7.6 at room temperature (0.1 M), magnesium chloride (5 mM), microsomal protein (1 mg/mL for human and dog, 0.5 mg/mL for other species) and the test compound at a final concentration of 1 μM. Following a short preincubation period at 37° C., the reactions were initiated by addition of betanicotinamide adenine dinucleotide phosphate, reduced form (NADPH, 1 mM), and terminated by transferring an aliquot into solvent after different time points. […] The half-life was determined by the slope of the semi-logarithmic plot of the concentration-time profile.

[5] = Animal experiments and sample analysis: plasma, brain and CSF concentration; type: in vivo; details: rat, 2 h between administration and CSF sampling
Description: In-vivo Effect: Animal Experiments and Sample Analysis (CSF):
Test compounds were administered to animals (rat) different routes at doses of 10.0 or 5 μmol/kg, (both oral and intravenous). After compound administration, the animals were sacrificed in a CO2 chamber and CSF samples were carefully collected by puncture of the cisterna magna. Immediately after CSF sampling, blood was taken by heart puncture and brains were dissected out. Blood was collected in EDTA-coated microvettes and plasma was prepared by centrifugation. Concentration of the test compounds in plasma, CSF or brain homogenate was determined using HPLC-MS-MS.

[6] = molecular target: PDE 10A (Homo sapiens (Human), UniProt Q9Y233); assay: Radioactive PDE10 assay ([3H]cAMP SPA); type: biochemical
Sequence of PDE 10A (Q9Y233 whole entry, species assumed): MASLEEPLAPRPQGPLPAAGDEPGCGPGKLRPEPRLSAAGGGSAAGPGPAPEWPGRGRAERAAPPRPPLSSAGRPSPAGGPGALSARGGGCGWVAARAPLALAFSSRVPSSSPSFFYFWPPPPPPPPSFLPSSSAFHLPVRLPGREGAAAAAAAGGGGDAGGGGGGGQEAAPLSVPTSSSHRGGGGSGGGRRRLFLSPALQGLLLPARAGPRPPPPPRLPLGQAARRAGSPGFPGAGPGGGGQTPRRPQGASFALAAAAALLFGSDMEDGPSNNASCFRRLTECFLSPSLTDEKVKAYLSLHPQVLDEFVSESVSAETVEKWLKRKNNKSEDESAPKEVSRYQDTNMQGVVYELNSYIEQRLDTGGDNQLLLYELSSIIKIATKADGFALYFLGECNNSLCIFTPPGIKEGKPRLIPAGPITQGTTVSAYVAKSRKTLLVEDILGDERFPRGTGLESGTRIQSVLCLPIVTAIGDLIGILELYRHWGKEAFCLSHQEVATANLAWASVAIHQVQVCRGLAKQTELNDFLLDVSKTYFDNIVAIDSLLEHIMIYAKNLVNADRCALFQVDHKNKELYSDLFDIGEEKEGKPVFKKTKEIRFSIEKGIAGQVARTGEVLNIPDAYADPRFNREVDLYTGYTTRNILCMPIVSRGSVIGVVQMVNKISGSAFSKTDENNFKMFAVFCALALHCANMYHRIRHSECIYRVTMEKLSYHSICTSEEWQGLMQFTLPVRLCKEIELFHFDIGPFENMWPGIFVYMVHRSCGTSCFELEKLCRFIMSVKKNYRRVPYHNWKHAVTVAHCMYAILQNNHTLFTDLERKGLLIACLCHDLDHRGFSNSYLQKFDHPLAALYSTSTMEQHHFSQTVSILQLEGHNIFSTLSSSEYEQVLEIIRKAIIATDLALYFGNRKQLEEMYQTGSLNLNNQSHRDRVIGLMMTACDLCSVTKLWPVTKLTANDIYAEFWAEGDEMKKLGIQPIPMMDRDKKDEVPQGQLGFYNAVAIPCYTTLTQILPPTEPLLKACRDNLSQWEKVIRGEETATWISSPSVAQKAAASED
Description: Into a 384 well plate (OptiPlate, white), the following components are pipetted (either manually or using automated pipetting devices): • 20 μl test-compound solution (test compound diluted in assay buffer at twofold the desired concentration) • +10 μl PDE 10A preparation (enzyme diluted in assay buffer to a concentration of 0.3 ng/μl protein) • +10 μl cAMP tracer (diluted in assay buffer to a concentration of 80 nM cAMP, specific activity ˜4 mCi/I)
After addition of all 3 components the plates are shortly spun and incubated at room temperature for 60 min. The reaction is stopped by the addition of 20 μl Yttrium SPA PDE Beads containing 18 mM zinc sulphate in water
PDE 10A protein is expressed upon baculovirus infection in SF9 cells. The cells have been incubated upon infection for ˜3 days and protein production was confirmed by Western Blot. The cells were collected by centrifugation and the pellet frozen in liquid nitrogen before it was resuspended in PBS containing 1% Triton X-100 and protease inhibitors. After 45 min incubation on ice, the cell debris was removed by centrifugation (13.000 rpm, 30 min).

Sequence of PDE 2A (O00408 whole entry, species assumed): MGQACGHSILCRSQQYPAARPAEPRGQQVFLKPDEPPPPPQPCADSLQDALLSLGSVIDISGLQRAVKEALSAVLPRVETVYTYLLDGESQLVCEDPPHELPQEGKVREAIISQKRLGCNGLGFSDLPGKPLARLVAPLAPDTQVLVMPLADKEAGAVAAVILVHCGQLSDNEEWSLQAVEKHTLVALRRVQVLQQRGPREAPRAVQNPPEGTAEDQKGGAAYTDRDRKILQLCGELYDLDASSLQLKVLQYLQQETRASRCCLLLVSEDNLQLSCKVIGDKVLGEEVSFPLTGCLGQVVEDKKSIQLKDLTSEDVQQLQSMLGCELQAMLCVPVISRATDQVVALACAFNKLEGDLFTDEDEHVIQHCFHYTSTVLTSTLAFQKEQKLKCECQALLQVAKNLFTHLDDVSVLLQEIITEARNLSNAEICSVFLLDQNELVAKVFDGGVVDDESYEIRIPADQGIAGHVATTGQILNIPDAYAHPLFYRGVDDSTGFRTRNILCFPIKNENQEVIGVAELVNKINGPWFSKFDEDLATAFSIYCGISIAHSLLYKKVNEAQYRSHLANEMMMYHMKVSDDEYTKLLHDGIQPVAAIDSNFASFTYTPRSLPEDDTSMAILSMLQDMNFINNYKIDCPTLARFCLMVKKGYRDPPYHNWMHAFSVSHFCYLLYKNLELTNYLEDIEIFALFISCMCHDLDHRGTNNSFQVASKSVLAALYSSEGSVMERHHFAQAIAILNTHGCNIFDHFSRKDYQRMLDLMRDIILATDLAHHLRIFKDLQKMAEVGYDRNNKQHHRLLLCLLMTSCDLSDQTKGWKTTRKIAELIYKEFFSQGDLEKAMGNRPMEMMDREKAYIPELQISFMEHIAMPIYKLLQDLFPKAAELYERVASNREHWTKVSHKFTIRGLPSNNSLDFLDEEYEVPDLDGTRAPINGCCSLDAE
Sequence of PDE10 (Q9Y233 whole entry, species assumed): as the sequence (Q9Y233 whole entry, species assumed) above
Sequence of hERG channel (Q12809 whole entry): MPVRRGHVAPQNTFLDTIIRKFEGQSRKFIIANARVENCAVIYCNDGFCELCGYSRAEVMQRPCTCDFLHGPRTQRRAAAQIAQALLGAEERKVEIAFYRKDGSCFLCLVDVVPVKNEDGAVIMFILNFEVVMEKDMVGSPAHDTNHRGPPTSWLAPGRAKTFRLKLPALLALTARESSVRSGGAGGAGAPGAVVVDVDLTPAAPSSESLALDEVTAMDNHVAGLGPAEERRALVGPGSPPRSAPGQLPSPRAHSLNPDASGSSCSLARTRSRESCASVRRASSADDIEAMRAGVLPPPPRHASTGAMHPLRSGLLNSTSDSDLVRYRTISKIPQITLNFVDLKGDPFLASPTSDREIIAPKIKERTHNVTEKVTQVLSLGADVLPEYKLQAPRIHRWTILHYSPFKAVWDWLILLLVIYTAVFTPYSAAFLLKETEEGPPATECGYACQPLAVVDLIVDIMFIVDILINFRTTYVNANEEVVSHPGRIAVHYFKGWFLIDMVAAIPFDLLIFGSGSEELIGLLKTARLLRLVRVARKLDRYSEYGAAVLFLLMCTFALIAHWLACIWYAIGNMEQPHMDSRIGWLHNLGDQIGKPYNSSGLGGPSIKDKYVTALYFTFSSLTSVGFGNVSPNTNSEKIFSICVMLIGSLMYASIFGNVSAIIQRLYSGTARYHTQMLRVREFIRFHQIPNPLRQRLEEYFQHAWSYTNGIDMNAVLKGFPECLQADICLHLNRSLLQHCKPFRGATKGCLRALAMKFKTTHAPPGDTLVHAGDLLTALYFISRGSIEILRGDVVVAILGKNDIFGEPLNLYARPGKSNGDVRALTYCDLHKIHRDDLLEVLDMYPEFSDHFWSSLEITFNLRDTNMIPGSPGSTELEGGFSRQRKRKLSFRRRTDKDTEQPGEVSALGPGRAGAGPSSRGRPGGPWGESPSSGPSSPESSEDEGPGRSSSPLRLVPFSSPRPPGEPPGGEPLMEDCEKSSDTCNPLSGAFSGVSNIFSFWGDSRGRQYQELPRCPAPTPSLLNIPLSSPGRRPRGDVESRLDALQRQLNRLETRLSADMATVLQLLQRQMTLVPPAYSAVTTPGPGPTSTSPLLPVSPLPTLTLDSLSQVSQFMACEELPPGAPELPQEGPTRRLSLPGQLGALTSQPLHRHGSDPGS

Row | SMILES | IC50 [1] | IC50 [2] | also measured
1 | Cc1nc2ccc(C(F)(F)F)nc2n2c(-c3cc(C(C)(C)O)ccc3Cl)nnc12 [Example 103b] | 10000 nM |  | 
2 | Cc1nc2ccc(C(F)(F)F)nc2n2c(-c3cc(OC4COCC4O)ccc3Cl)nnc12 (single isomer, unassigned) [Example 111b] | 2130 nM | 11 nM | 
3 | Cc1nc2ccc(C3CC3)nc2n2c(-c3cc(C4(O)CCCOC4)ccc3Cl)nnc12 (stereo not shown) [Example 113] | 3190 nM | 0.2 nM | 
4 | Cc1nc2ccc(C3CC3)nc2n2c(-c3cc(OC[C@H](C)O)ccc3Cl)nnc12 [Example 35a] |  |  | IC50 [3]: > 10000 nM; Half-life - t½ [4]: 2.17 h
5 | Cc1ccc(C(C)(C)O)cc1-c1nnc2c(C)nc3ccc(C4CC4)nc3n12 [Example 75] |  |  | conc CSF [5]: 31 nM; conc brain [5]: 383 nM; conc plasma [5]: 1130 nM; Half-life - t½ [4]: 2.17 h
6 | Cc1nc2cccnc2n2c(-c3cc(OCCO)ccc3Cl)nnc12 [Example 15] |  |  | IC50 [6]: > 10000 nM
7 | Cc1nc2ccc(C(F)(F)F)nc2n2c(-c3cc(OC4COCC4O)ccc3Cl)nnc12 (single isomer, unassigned) [Example 111a] | 1830 nM | 65 nM | 
8 | Cc1ccc2nc(C)c3nnc(-c4cc(CO)ccc4Cl)n3c2n1 [Example 60] |  | 19 nM | 
9 | Cc1ccc(C2(O)CCC2)cc1-c1nnc2c(C)nc3cccnc3n12 [Example 73] | 10000 nM |  | Half-life - t½ [4]: 2.17 h
10 | Cc1nc2ccc(C3CC3)nc2n2c(-c3cc(OC4COCC4O)ccc3F)nnc12 (racemic) [Example 107] | 22 nM | 7 nM | 
11 | Cc1nc2ccc(C(F)(F)F)nc2n2c(-c3cc(OC4COCC4O)ccc3F)nnc12 (racemic) [Example 106] | 1940 nM | 160 nM | 
12 | Cc1ccc(C2(O)CCOCC2)cc1-c1nnc2c(C)nc3ccc(C(F)(F)F)nc3n12 [Example 96b] | 10000 nM |  | 
13 | Cc1nc2ccc(C3CC3)nc2n2c(-c3cc(C4(O)CCOC4)ccc3Cl)nnc12 (racemic) [Example 97] | 2140 nM |  | half-life at 1 μM ([4]; human, pooled liver microsomes, pH 7.6, human liver microsomes, read-out: Half-life - t½): 0.85 h
14 | Cc1nc2cccnc2n2c(-c3cc(C4(O)CCCOC4)ccc3Cl)nnc12 (racemic) [Example 112] | 7000 nM | 18 nM | 
15 | Cc1nc2ccc(C(F)(F)F)nc2n2c(-c3cc(OC4COCC4O)ccc3Cl)nnc12 (racemic) [Example 111] | 3980 nM | 22 nM | 
16 | Cc1nc2ccc(C(F)(F)F)nc2n2c(-c3cc(C4(O)CCOC4)ccc3Cl)nnc12 (racemic) [Example 115] |  | 39 nM | 
17 | Cc1nc2cccnc2n2c(-c3cc(OC4COCC4O)ccc3Cl)nnc12 (racemic) [Example 55] | 5300 nM | 80 nM | Half-life - t½ [4]: 2.17 h
18 | Cc1nc2ccc(C(F)(F)F)nc2n2c(-c3cc(C4(O)CCCOC4)ccc3Cl)nnc12 (racemic) [Example 114] |  | 22 nM | 

Second part, led by results:

Row | IC50 [1] | IC50 [2] | SMILES | also measured
19 |  | 9 nM | Cc1nc2ccc(C(F)(F)F)nc2n2c(-c3cc(C4(O)CCCOC4)ccc3Cl)nnc12 (single isomer, unassigned) [Example 114a] | 
20 |  | 82 nM | Cc1nc2ccc(C(F)(F)F)nc2n2c(-c3cc(C4(O)CCOC4)ccc3Cl)nnc12 (single isomer, unassigned) [Example 115a] | 
21 | 2600 nM | 25 nM | Cc1nc2cccnc2n2c(-c3cc(C4(O)CCCOC4)ccc3Cl)nnc12 (single isomer, unassigned) [Example 112a] | 
22 | 2500 nM | 68 nM | Cc1nc2cccnc2n2c(-c3cc(C4(O)CCCOC4)ccc3Cl)nnc12 (single isomer, unassigned) [Example 112b] | 
23 | 10000 nM | 11 nM | Cc1nc2ccc(C(F)(F)F)nc2n2c(-c3cc(C4(O)CCCOC4)ccc3Cl)nnc12 (single isomer, unassigned) [Example 114b] | 
24 | 10000 nM | 45 nM | Cc1nc2ccc(C(F)(F)F)nc2n2c(-c3cc(C4(O)CCOC4)ccc3Cl)nnc12 (single isomer, unassigned) [Example 115b] | 
